Experimental data published in patent US10172954B2, “Use of a reverse-micellar system for delivering chelators of radionuclides and metals” (priority 2014, dated 2019).

Tests used:
[1] = Pu decorporation in rats contaminated i.v. with plutonium citrate, chronic intrarectal treatment, liver and femur alpha activity; conditions: cumulative CaNa3DTPA doses 44.3 to 307.6 μmol/kg, rectal, treatment from D+4
[2] = oral delivery; DTPA highly polar at neutral pH; cited from earlier work

Q: For O=C([O-])CN(CCN(CC(=O)[O-])CC(=O)[O-])CCN(CC(=O)[O-])CC(=O)[O-].[Ca+2].[Na+].[Na+].[Na+] [CaNa3DTPA, pentetate calcium trisodium], which “efficacy of decorporation in liver or bone Pu deposits as a function of cumulative dose” value [1] is on record?
A: Its value is “proportional to the administered dose cumulative”.

Q: With O=C(O)CN(CCN(CC(=O)O)CC(=O)O)CCN(CC(=O)O)CC(=O)O [DTPA, diethylene triaminopentaacetic acid] as the molecule, how does the “absorbed when delivered orally” value [2] read?
A: The value was < 10%.
